Measurements taken from ChEMBL document CHEMBL1641477, “Shp2 protein tyrosine phosphatase inhibitor activity of estramustine phosphate and its triterpenoid analogs” (Bioorg Med Chem Lett, 2011).
Values belong to the compound of their own block, whether it stands above or below them.

Experiments:
[1] = molecular target: T1, Tyrosine-protein phosphatase non-receptor type 11 (Homo sapiens, UniProt Q06124); test: Inhibition of recombinant SHP2
T1 sequence (Q06124 whole entry): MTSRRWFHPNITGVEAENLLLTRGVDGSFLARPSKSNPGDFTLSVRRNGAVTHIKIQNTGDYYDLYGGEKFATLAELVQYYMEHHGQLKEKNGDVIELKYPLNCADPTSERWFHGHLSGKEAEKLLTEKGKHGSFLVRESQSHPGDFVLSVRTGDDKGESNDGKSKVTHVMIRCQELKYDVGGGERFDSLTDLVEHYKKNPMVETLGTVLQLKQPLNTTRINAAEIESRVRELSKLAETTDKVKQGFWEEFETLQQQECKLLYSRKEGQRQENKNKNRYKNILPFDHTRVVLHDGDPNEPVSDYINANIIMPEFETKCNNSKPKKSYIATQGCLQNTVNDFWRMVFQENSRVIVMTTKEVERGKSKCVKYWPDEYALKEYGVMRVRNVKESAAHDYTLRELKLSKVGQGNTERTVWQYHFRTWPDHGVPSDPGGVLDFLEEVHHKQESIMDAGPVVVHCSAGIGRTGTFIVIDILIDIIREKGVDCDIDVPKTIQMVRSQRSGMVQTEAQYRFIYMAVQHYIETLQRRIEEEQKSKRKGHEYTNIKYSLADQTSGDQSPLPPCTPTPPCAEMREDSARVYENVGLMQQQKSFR

[2] = molecular target: T2, Tyrosine-protein phosphatase non-receptor type 1 (Homo sapiens, UniProt P18031); test: Inhibition of recombinant PTP1B
T2 sequence (P18031 whole entry): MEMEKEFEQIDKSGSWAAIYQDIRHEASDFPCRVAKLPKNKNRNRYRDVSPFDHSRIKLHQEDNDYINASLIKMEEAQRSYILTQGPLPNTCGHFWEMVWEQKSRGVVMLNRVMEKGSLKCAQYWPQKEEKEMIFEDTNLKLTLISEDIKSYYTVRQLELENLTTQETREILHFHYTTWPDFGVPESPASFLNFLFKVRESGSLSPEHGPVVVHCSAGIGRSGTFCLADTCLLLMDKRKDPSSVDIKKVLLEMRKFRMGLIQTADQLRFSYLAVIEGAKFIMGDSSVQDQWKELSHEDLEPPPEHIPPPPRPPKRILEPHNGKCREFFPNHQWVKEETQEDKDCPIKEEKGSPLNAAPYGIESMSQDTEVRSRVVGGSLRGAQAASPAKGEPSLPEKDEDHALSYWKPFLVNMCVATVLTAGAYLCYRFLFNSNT

[3] = molecular target: T3, Tyrosine-protein phosphatase non-receptor type 7 (Homo sapiens, UniProt P35236); test: Inhibition of recombinant HePTP
T3 sequence (P35236 whole entry): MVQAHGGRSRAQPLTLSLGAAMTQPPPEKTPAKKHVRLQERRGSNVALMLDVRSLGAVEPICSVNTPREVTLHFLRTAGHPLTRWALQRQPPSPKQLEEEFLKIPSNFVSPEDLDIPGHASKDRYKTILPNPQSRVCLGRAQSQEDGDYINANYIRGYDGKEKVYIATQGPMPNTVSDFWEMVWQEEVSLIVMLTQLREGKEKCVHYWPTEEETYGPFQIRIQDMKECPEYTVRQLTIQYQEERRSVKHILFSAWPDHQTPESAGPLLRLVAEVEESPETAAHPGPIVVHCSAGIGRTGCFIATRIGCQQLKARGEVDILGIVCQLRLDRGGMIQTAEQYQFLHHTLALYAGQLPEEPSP

[4] = molecular target: Tyrosine-protein phosphatase non-receptor type 6 (Homo sapiens, UniProt P29350); test: Inhibition of recombinant SHP1
Tyrosine-protein phosphatase non-receptor type 6, sequence (P29350 whole entry): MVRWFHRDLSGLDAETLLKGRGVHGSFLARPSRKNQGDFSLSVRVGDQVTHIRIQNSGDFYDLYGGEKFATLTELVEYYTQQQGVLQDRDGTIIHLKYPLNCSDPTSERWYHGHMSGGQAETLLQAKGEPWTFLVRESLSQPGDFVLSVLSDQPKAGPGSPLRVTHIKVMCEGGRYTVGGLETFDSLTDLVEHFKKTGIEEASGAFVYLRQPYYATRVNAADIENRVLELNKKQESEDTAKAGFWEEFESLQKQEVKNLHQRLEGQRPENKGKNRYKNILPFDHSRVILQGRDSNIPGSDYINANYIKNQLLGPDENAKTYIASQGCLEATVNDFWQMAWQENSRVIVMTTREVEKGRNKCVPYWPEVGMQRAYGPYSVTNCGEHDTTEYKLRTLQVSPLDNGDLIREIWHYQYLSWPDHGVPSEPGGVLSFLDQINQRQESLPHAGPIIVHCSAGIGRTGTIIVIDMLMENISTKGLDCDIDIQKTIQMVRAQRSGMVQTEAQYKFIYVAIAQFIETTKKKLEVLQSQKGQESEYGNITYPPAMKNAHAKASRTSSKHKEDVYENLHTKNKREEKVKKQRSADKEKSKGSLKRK

[5] = molecular target: T4, Tyrosine-protein phosphatase non-receptor type 11 (Homo sapiens) (UniProt Q06124)
T4 sequence (whole entry): T1 sequence (Q06124 whole entry)
Description: Mixed inhibition of recombinant SHP2 by Lineweaver-Burk plot analysis

[6] = molecular target: T4, Tyrosine-protein phosphatase non-receptor type 11 (Homo sapiens); remark: listed apart in the source
Description: Mixed inhibition of recombinant SHP2 at enzyme-substrate complex by Lineweaver-Burk plot analysis

[7] = molecular target: T1, Tyrosine-protein phosphatase non-receptor type 11; test: Binding affinity to recombinant SHP2 by surface plasmon […]

Compound: COc1ccc2c(c1)CC[C@@H]1[C@@H]2CC[C@@]2(C)[C@H]1CC[C@@]21CCNP(=O)(N(CCCl)CCCl)O1 (some centres not stated)
IC50 [1]: > 300 µM

Compound: CC1=C(O)C(=O)C=C2C1=CC=C1[C@@]2(C)CC[C@@]2(C)[C@@H]3C[C@](C)(C(=O)O)CC[C@]3(C)CC[C@]12C [CELASTROL]
IC50 [1]: 3.3 µM
IC50 [2]: 13.2 µM
IC50 [3]: 75.7 µM
IC50 [4]: 27.8 µM

IC50 [1]: 9.6 µM
IC50 [3]: > 300 µM
IC50 [4]: 65.4 µM
Compound: CC1(C)[C@@H](O)CC[C@]2(C)[C@H]3C(=O)C=C4[C@@H]5C[C@@](C)(C(=O)O)CC[C@]5(C)CC[C@@]4(C)[C@]3(C)CC[C@@H]12 [ENOXOLONE]

Compound: C[C@]12CC[C@@H]3c4ccc(O)cc4CC[C@H]3[C@@H]1CC[C@@H]2OP(=O)(O)O [ESTRADIOL PHOSPHATE]
IC50 [1]: 19.9 µM
IC50 [2]: > 300 µM
IC50 [3]: > 300 µM
IC50 [4]: > 300 µM

IC50 [1]: > 300 µM
Compound: C[C@]12CC[C@@H]3c4ccc(O)cc4CC[C@H]3[C@@H]1CC[C@@H]2O [ESTRADIOL]

Compound: C[C@]12CC[C@@H]3c4ccc(OC(=O)N(CCCl)CCCl)cc4CC[C@H]3[C@@H]1CC[C@@H]2OP(=O)(O)O [ESTRAMUSTINE PHOSPHATE]
Kii [5]: 10.8 µM
Kis [6]: 22.8 µM
IC50 [1]: 17.1 µM
IC50 [2]: 62.4 µM
Kd [7]: 8.4 µM
IC50 [3]: 153 µM
IC50 [4]: 40.4 µM

Compound: C[C@]12CC[C@@H]3c4ccc(OC(=O)N(CCCl)CCCl)cc4CC[C@H]3[C@@H]1CC[C@@H]2O [ESTRAMUSTINE]
IC50 [1]: > 300 µM

Compound: CC1=C(O)C(=O)C=C2C1=CC=C1[C@@]2(C)CC[C@@]2(C)[C@@H]3C[C@@H](C)C(=O)C[C@]3(C)CC[C@]12C [TINGENONE]
IC50 [1]: 61.6 µM
